Assay: Nitrosamine formation in aqueous amine / sodium nitrite mixture, comparison with THEDA (Beispiel 4)
Format: physicochemical
Settings: 20 mM Amin, 20 mM Natriumnitrit, 4 Stunden, 37 °C, pH 4

% gebildetes Nitrosamin bezogen auf eingesetztes Amin: 1,0%
SMILES: CC(O)CN(CCN(CC(C)O)CC(C)O)CC(C)O (stereo not shown) [THEDA, N,N,N′,N′-Tetrakis(2-hydroxypropyl)ethylene-diamin]

Source: patent EP0344564A1, “Utilisation of special amines or hindering nitrosamine production” (Eisenbrand, Gerhard, Prof. Dr., priority 1988, dated 1989)
